We go through 89 compounds from a melting point compilation (Tetko et al.).

As a reminder, the melting point is the temperature of the solid-liquid transition. `O=C(O)C=CSCc1ccco1` gave a melting point of 119 to 121 °C. For `O=C(O)c1nn(-c2cccc(Br)c2)c2c1CCCC2` the value was 193 to 195 °C.

As for `[N-]=[N+]=Nc1ccnc(CO)c1`, the melting point was in the range of 59 to 61 °C. To `COc1ccc(CCC(=O)NN)cc1` belongs 129 to 131 °C; to `O=S1(=O)C=C(Nc2ccccc2)CC1`, 153 to 155 °C; to `O=C(O)Cc1c[nH]c2ccc([N+](=O)[O-])cc12`, 189 to 191 °C. Compound `O=C(CBr)c1ccc2c(c1)CCC2` displayed a melting point of 57 to 59 °C. In turn, `Cn1ncc(C(=O)O)c1Br` yielded a melting point of 202 to 204 °C. For `Nc1ccc(S(=O)(=O)NCc2ccco2)cc1` the value was 180 to 182 °C; for `O=c1c2cc(Cl)ccc2nc2n1CCC2`, 180 to 182 °C. For `Cc1nc(-c2cccc(NC(=O)CCl)c2)cs1` the value was 45 to 47 °C. To `O=Cc1cc2ccccc2nc1O` belongs 308 to 310 °C; to `NC(=O)C1Cc2[nH]cnc2CN1` (centres undefined), 249 to 251 °C.

Take `Nc1ccc(N2CCCCC2)c(S(=O)(=O)Nc2ccc(Cl)cc2)c1`: the melting point was in the range of 145 to 147 °C. For `CC(Oc1ccc(Br)cc1)C(=O)O` (centres undefined) the value was 118 to 120 °C; for `Cc1ccc(C(C)(C)C(=O)O)cc1`, 76 to 78 °C; for `O=C1CC(C(=O)O)c2ccccc2N1` (centres undefined), 211 to 213 °C.

Compound `N#Cc1ccc(Cl)cc1NCc1ccccc1` gave a melting point of 93 to 95 °C. To `Cc1cccc(S(N)(=O)=O)n1` belongs 165 to 167 °C; to `Nc1ccc(C(=O)NCc2ccccn2)c(Cl)c1`, 159 to 161 °C.

Take `CC1=C(C#N)CCC(=O)N1`: the melting point was 201 to 203 °C. In turn, `O=C1CSc2ccncc2N1` registered a melting point of 203 to 205 °C. To `COC(=O)C(=O)CC(=O)c1ccc(N2CCOCC2)cc1` belongs 164 to 166 °C; to `CC(C)C(Br)C(=O)N1CCc2ccccc21` (centres undefined), 111 to 113 °C. To `CC1(CCc2ccccc2)NC(=O)N(N)C1=O` (centres undefined) belongs less than 17 °C; to `Cc1cc(C)n(-c2ccc(CO)cc2)n1`, less than 17 °C; to `O=C(O)/C=C/c1cc2ccccc2o1`, 213 to 215 °C. Regarding `CC(CC(=O)O)NC(=O)OCc1ccccc1` (centres undefined), the melting point fell in the range of 129 to 131 °C. Compound `O=C(Cc1cccc2ccccc12)NO` yielded a melting point of 179 to 181 °C. For `O=C(O)c1occc1COc1ccccc1` the value was 129 to 131 °C; for `CC1CCN(S(=O)(=O)c2ccc(N)cc2)CC1`, 108 to 110 °C. Compound `CCCC(C(=O)O)N(C)C` (centres undefined) registered a melting point of 179 to 181 °C. For `O=C1CC2(CCCCC2)CC(=O)O1` the value was 210 to 214 °C. For `Cc1ccc(C(=O)CCC(=O)O)cc1C` the value was 127 to 129 °C. For `CC(C)(C)OC(=O)Nc1ccc(F)c(N)c1` the value was 122 to 124 °C. `Cn1cnnc1C1CCNCC1` showed a melting point of 181 to 183 °C. For `CC(C)(C(=O)O)c1cccc(Cl)c1` the value was 65 to 67 °C; for `NC(C(=O)O)c1cccc(C(F)(F)F)c1` (centres undefined), 192 to 194 °C. For `CC(=O)c1ccc(Cl)c(S(=O)(=O)Cl)c1` the value was 111 to 113 °C; for `CC(Cc1ccccc1)n1cccc1C(=O)O` (centres undefined), 78 to 80 °C. Consider `O=C(O)c1ccc(S(=O)(=O)CCO)cc1`, for which the melting point is 189 to 191 °C. To `COc1cc(C)cc(C(=O)O)c1O` belongs 189 to 191 °C; to `Cc1cc(C(=O)O)ccc1NC(=O)c1cccs1`, 199 to 201 °C; to `NC(=O)NCCCCCC(=O)O`, 175 to 177 °C. For `CCOC(=O)c1c(N=C=S)sc(C)c1C` the value was 67 to 69 °C; for `O=C(O)C1CCCCN1C(=O)c1cccnc1` (centres undefined), 188 to 190 °C. To `CC(C)c1nc(N)n(C)n1` belongs 108 to 110 °C. Take `COc1ccc(C=NO)cc1OC`: the melting point lay within 91 to 93 °C.

Regarding `NCc1cnn(-c2ccc(F)cc2F)c1`, the melting point lay within 49 to 51 °C.

Regarding `NCc1ccccc1NS(=O)(=O)c1ccccc1`, the melting point lay within 188 to 190 °C. In the case of `CCOc1ccc2cc(C(=O)O)[nH]c2c1`, the melting point fell in the range of 168 to 170 °C. To `COC(=O)c1ccc2c(=O)[nH]c(CCl)nc2c1` belongs 210 to 212 °C; to `N#Cc1cc(C(F)(F)F)ccc1-n1cncn1`, 114 to 116 °C; to `CC(C)NC(=O)C(C)Cl` (centres undefined), 89 to 91 °C. To `COCCOc1ccc(C(N)=S)cc1` belongs 141 to 143 °C; to `O=C(O)c1ccc(NCCO)cc1`, 196 to 198 °C. With `CNC(=O)c1cc(Cl)ccc1[N+](=O)[O-]`, the melting point lay within 137 to 139 °C. To `O=S(=O)(NC1CC1)c1ccc(F)cc1` belongs 54 to 56 °C; to `CCc1n[nH]c(C(=O)O)c1Cl`, 199 to 201 °C.

`CC(=O)c1ccc2c(c1)CC(=O)N2C`: the melting point was in the range of 176 to 178 °C. For `O=C(O)CCCCNC(=O)OCc1ccccc1` the value was 104 to 106 °C; for `Cc1cccc(C(=O)Nc2cccc(O)c2)n1`, 177 to 179 °C; for `CC(C)(C)c1ccc(C=C[N+](=O)[O-])cc1`, 44 to 46 °C. To `Cc1nn(-c2ccccc2)c(C)c1N` belongs 61 to 63 °C.

Take `CCCCNc1nc2ccc(C)cc2s1`: the melting point was 70 to 72 °C. For `O=Cc1csc(-c2cccs2)n1` the value was 80 to 82 °C; for `NC(CC(=O)NC1CCCC1)=NO`, 119 to 121 °C. In turn, `COC(=O)Nc1ccc(CN)cc1` came in with a melting point of 103 to 105 °C. To `O=c1ccnc(-c2cccc(O)c2)[nH]1` belongs 229 to 231 °C; to `COCCNC(C)(C)CO`, 44 to 46 °C. For `C=CCc1ccc(OCC(=O)O)c(OC)c1` the value was 169 to 172 °C.

On to `NS(=O)(=O)C1CCCOC1` (centres undefined), for which the melting point is 96 to 98 °C.

As to `Cc1cccc2c(CC(=O)O)c[nH]c12`, the melting point was 188 to 190 °C. For `Cn1c(N)c(C(=O)CCl)c(=O)[nH]c1=O` the value was 356 to 358 °C; for `CC(C)c1cc(C(=O)O)nn1-c1ccncc1`, 225 to 227 °C; for `CN(C)C(N)=S`, 144 to 146 °C.

In the case of `O=C(O)CCC(=O)N1CCc2sccc2C1`, the melting point was 130 to 132 °C. For `CNS(=O)(=O)c1ccc2c(c1)CCN2` the value was 124 to 126 °C; for `C#CCNC(=O)CC#N`, 108 to 110 °C; for `Cc1cc(C(=O)O)c(C)n1C(C)C`, 178 to 180 °C. In turn, `COc1cccc(C(N)(C(=O)O)C(F)(F)F)c1` (centres undefined) displayed a melting point of 139 to 141 °C. To `O=C(O)c1ccccc1Nc1ccc(SC(F)F)cc1` belongs 116 to 118 °C.

`CC(CO)Nc1nc2ccccc2[nH]1` (centres undefined) yielded a melting point of 174 to 176 °C. For `COc1cc(N)c(O)cc1[N+](=O)[O-]` the value was 149 to 151 °C; for `CC(=O)NCc1ccc(C(C)=O)s1`, 129 to 131 °C. To `O=C(CCl)NC(=O)Nc1ccc2c(c1)OCCO2` belongs 128 to 130 °C; to `Cc1ccc(-c2nn(-c3ccc(F)cc3)cc2C(=O)O)cc1`, 212 to 214 °C. `CC(C)c1nnc(N)o1`: the melting point was 184 to 186 °C. For `Cc1ccc(-n2c(S)nnc2-c2ccncc2)cc1C` the value was 260 to 262 °C.
